Each block holds one substance with its values, some of them ahead of it.
Columns and labels:
[1] = system: COS7 cells; test: MTT assay, COS7 cells; type: cell-based
[2] = system: U251 GBM cells; test: cell number by flow cytometry, U251 GBM cells; type: cell-based; details: input 5000
Description: Cell viability and survival was measured using the MTT assay, a colorimetric assay for assessing cell metabolic activity set up under conditions where the absorption reflects the number of viable cells present (Table 21 and 22) and expressed as relative absorption at 570 nm. Early apoptosis was measured using VYBRANT DyeCycle Violet stain (Molecular Probes), a DNA-selective, cell membrane-permeant dye that can distinguish the compacted state of the nuclear chromatin in apoptotic cells as determined by flow cytometry and presented as the percent of cells that are apoptotic (Table 23 and 24). The actual number of cells following treatment with TAT-ICD or TAT alone (Table 25) was determined using flow cytometry compared to an input of 5,000 cells at time zero. To confirm apoptosis the TUNEL labeling assay, which detects DNA strand breaks in apoptotic cells by fluorescence microscopy, was also used to examine U251 cells treated with the PTPRG WD. Briefly, the assay used an optimized terminal transferase ([…]) to label 3′OH ends in genomic DNA with TMR-dUTP, thus allowing the measurement and quantification of cell death by apoptosis. U251 cells were pretreated for 1, 3 and 6 hours with 50 μM P1-WD. Then cells were fixed and permeabilized, incubated with TUNEL reaction mixture for 1 h at RT, and then stained with DAPI (for nuclei detection) and with Alexa670-Phalloidin (to detect actin in cell membranes). After the staining steps, cells were visualized with a confocal microscope.

[3] = system: DBTRG GBM cells; test: MTT survival assay, DBTRG GBM cells; type: cell-based, human
Description: (§1) The DBTRG-O5MG (Denver Brain Tumor Research Group 05) cell line was established from tissue from a patient with glioblastoma multiforme who had been treated with local brain irradiation and multi drug chemotherapy (Kruse C A, et al. 1992 In vitro Cell Dev Biol, 28A(9-10):609-14). U87 is a commonly studied and thoroughly characterized grade IV glioma cell line derived from malignant glioma (Clark M J, et al, 2010 Plos Genet. 6(1):e1000832.). T98G is a glioblastoma multiforme cell line extracted from a person (Stein G H, 1979, J. Cell Physiol, 99(1):43-54). Proliferation and survival were assessed following TAT-ICD or control peptide (Table 29) or the P1-WD or control peptide treatment using the MTT assay as described above. Data are relative absorption; mean and standard deviation.

[4] = system: U87 GBM cells; test: MTT survival assay, U87 GBM cells; type: cell-based
Description: as §1

[5] = system: bEnd3 endothelial cells; test: MTT assay, bEnd3 endothelial cells; type: cell-based
[6] = in vitro phosphatase assay of TAT-ICD (pNPP); type: biochemical; details: 50 μM TAT control peptide or 50 μM TAT-ICD; 30 minutes
Description: Cells were then sonicated twice (6 sec, 15% \N) and centrifuged at 2000 rpm for 10 minutes. The supernatants were collected and centrifuged at 28000 rpm for 60 minutes and then the membrane pellets were dissolved in 20 mM tris pH 7.4. Equal amount of membrane fractions were added to pNPP buffer containing 20 mM tris, 10 mM DTT and 2 mM pNPP. Following, DMSO and 50 μM TAT control peptide or 50 μM TAT-ICD, in presence or absence of 200 μM Na3VO4 were added. After 30 minutes of incubation, levels of de-phosphorylation, in presence or absence of orthovanadate, were measured at 405 nm by a plate reader (Table 5). Shown is % fold increase over the pNPP buffer alone; mean values of 7 experiments in triplicate.

[7] = system: tyrosine phosphatase activity in PMNs; test: in vitro phosphatase activity (pNPP) on membranes from human primary PMNs; type: biochemical; details: PMN membranes, DMSO 0.75
Description: We first tested the biochemical activity of the fusion peptide by performing in vitro assays of phosphatase activity on purified membranes isolated from human primary monocytes compared to membranes isolated from human primary polymorphonuclear cells (PMNs). Human primary monocytes and polymorphonuclear (PMNs) cells were isolated from whole blood of healthy donors. Purity of monocyte preparation was evaluated by flow cytometry after staining with fluorescein isothiocyanate (FITC)-conjugated anti-CD14 antibody and was more than 95%. Isolated cells were kept at 37° C. in standard adhesion buffer (PBS, 1 mM CaCl2, 1 mM MgCl2, 10% FBS, pH 7.2) and used within 1 h.
The phosphatase activity in membrane fractions isolated from human monocytes and PMNs was assessed. […] Cells were then sonicated twice (6 sec, 15% W) and centrifuged at 2000 rpm for 10 minutes. The supernatants were collected and centrifuged at 28000 rpm for 60 minutes. After centrifugation, the supernatants were discarded, and the membrane pellets were dissolved in 20 mM tris pH 7.4. Equal amount of membrane fractions were added to pNPP buffer containing 20 mM tris, 10 mM DTT and 2 mM pNPP. Following, DMSO and peptides were added. After 30 minutes of incubation, levels of de-phosphorylation, in presence or absence of orthovanadate, were measured at 405 nm by a plate reader. Values are absorbance at 405 nn shown as percent fold increase over the blank; mean values of three experiments are shown. *p<0.001 vs vehicle (DMSO).

Substance: TAT (GRKKRRQRRRPPQ; listed as Homo sapiens) [reference compound]
mean absorbance in the MTT assay ([1]; 0.1 μM, 24 hours, CTRL 700): 649
mean absorbance in the MTT assay ([1]; 0.1 μM, 48 hours, CTRL 1267): 1320
mean absorbance in the MTT assay ([1]; 0.1 μM, 72 hours, CTRL 1500): 1495
mean absorbance in the MTT assay ([1]; 0.25 μM, 24 hours, CTRL 700): 624
mean absorbance in the MTT assay ([1]; 0.25 μM, 48 hours, CTRL 1267): 1250
mean absorbance in the MTT assay ([1]; 0.25 μM, 72 hours, CTRL 1500): 1388
mean absorbance in the MTT assay ([1]; 0.5 μM, 24 hours, CTRL 700): 650
mean absorbance in the MTT assay ([1]; 0.5 μM, 48 hours, CTRL 1267): 1289
mean absorbance in the MTT assay ([1]; 0.5 μM, 72 hours, CTRL 1500): 1341
number of cells ([2]; TAT 50 μM, 6 hours, Control 5000): 4700 cells per standard volume of medium
number of cells ([2]; TAT 50 μM, 9 hours, Control 10000): 7000 cells per standard volume of medium
number of cells ([2]; TAT 50 μM, 24 hours, Control 10000): 11385 cells per standard volume of medium
MTT relative absorption ([3]; 0.3 μM, 24 hours, Control 941): 711
MTT relative absorption ([3]; 0.3 μM, 48 hours, Control 1274): 1031
MTT relative absorption ([3]; 0.3 μM, 72 hours, Control 1667): 1583
MTT relative absorption ([3]; 0.5 μM, 24 hours, Control 941): 826
MTT relative absorption ([3]; 0.5 μM, 48 hours, Control 1274): 1061
MTT relative absorption ([3]; 0.5 μM, 72 hours, Control 1667): 1591
MTT relative absorption ([3]; 1.0 μM, 24 hours, Control 941): 792
MTT relative absorption ([3]; 1.0 μM, 48 hours, Control 1274): 1005
MTT relative absorption ([3]; 1.0 μM, 72 hours, Control 1667): 1275
MTT relative absorption ([4]; 0.1 μM, 24 hours, CTRL 1200): 1200
MTT relative absorption ([4]; 0.1 μM, 48 hours, CTRL 1200): 1018
MTT relative absorption ([4]; 0.1 μM, 72 hours, CTRL 1336): 1343
MTT relative absorption ([4]; 0.25 μM, 24 hours, CTRL 1200): 1195
MTT relative absorption ([4]; 0.25 μM, 48 hours, CTRL 1200): 950
MTT relative absorption ([4]; 0.25 μM, 72 hours, CTRL 1336): 1200
MTT relative absorption ([4]; 0.5 μM, 24 hours, CTRL 1200): 1160
MTT relative absorption ([4]; 0.5 μM, 48 hours, CTRL 1200): 900
MTT relative absorption ([4]; 0.5 μM, 72 hours, CTRL 1336): 1235
mean absorbance in the MTT assay ([5]; 0.1 uM, 24 hours, CTRL 352): 354
mean absorbance in the MTT assay ([5]; 0.1 uM, 48 hours, CTRL 523): 503
mean absorbance in the MTT assay ([5]; 0.25 uM, 24 hours, CTRL 352): 338
mean absorbance in the MTT assay ([5]; 0.25 uM, 48 hours, CTRL 523): 540
mean absorbance in the MTT assay ([5]; 0.5 uM, 24 hours, CTRL 352): 328
mean absorbance in the MTT assay ([5]; 0.5 uM, 48 hours, CTRL 523): 528
phosphatase activity, % fold increase over the pNPP buffer alone [6]: 191.7%

Substance: TAT-ICD: fusion recombinant protein SEQ ID 5: PTPRG intracellular domain aa 797-1445 fused to 13 aa TAT sequence
mean absorbance in the MTT assay ([1]; 0.1 μM, 24 hours, CTRL 700): 674
mean absorbance in the MTT assay ([1]; 0.1 μM, 48 hours, CTRL 1267): 1391
mean absorbance in the MTT assay ([1]; 0.1 μM, 72 hours, CTRL 1500): 1481
mean absorbance in the MTT assay ([1]; 0.25 μM, 24 hours, CTRL 700): 684
mean absorbance in the MTT assay ([1]; 0.25 μM, 48 hours, CTRL 1267): 1289
mean absorbance in the MTT assay ([1]; 0.25 μM, 72 hours, CTRL 1500): 1489
mean absorbance in the MTT assay ([1]; 0.5 μM, 24 hours, CTRL 700): 694
mean absorbance in the MTT assay ([1]; 0.5 μM, 48 hours, CTRL 1267): 1295
mean absorbance in the MTT assay ([1]; 0.5 μM, 72 hours, CTRL 1500): 1461
number of cells ([2]; TAT-ICD 0.5 μM, 6 hours, Control 5000): 4676 cells per standard volume of medium
number of cells ([2]; TAT-ICD 0.5 μM, 9 hours, Control 10000): 5400 cells per standard volume of medium
number of cells ([2]; TAT-ICD 0.5 μM, 24 hours, Control 10000): 6094 cells per standard volume of medium
number of cells ([2]; TAT-ICD 1 μM, 6 hours, Control 5000): 2688 cells per standard volume of medium
number of cells ([2]; TAT-ICD 1 μM, 9 hours, Control 10000): 5434 cells per standard volume of medium
number of cells ([2]; TAT-ICD 1 μM, 24 hours, Control 10000): 5300 cells per standard volume of medium
number of cells ([2]; TAT-ICD 2 μM, 6 hours, Control 5000): 3943 cells per standard volume of medium
number of cells ([2]; TAT-ICD 2 μM, 9 hours, Control 10000): 3016 cells per standard volume of medium
number of cells ([2]; TAT-ICD 2 μM, 24 hours, Control 10000): 4500 cells per standard volume of medium
MTT relative absorption ([3]; 0.3 μM, 24 hours, Control 941): 772
MTT relative absorption ([3]; 0.3 μM, 48 hours, Control 1274): 770
MTT relative absorption ([3]; 0.3 μM, 72 hours, Control 1667): 1243
MTT relative absorption ([3]; 0.5 μM, 24 hours, Control 941): 773
MTT relative absorption ([3]; 0.5 μM, 48 hours, Control 1274): 623
MTT relative absorption ([3]; 0.5 μM, 72 hours, Control 1667): 1022
MTT relative absorption ([3]; 1.0 μM, 24 hours, Control 941): 669
MTT relative absorption ([3]; 1.0 μM, 48 hours, Control 1274): 577
MTT relative absorption ([3]; 1.0 μM, 72 hours, Control 1667): 712
MTT relative absorption ([4]; 0.1 μM, 24 hours, CTRL 1200): 1070
MTT relative absorption ([4]; 0.1 μM, 48 hours, CTRL 1200): 1167
MTT relative absorption ([4]; 0.1 μM, 72 hours, CTRL 1336): 813
MTT relative absorption ([4]; 0.25 μM, 24 hours, CTRL 1200): 1069
MTT relative absorption ([4]; 0.25 μM, 48 hours, CTRL 1200): 1062
MTT relative absorption ([4]; 0.25 μM, 72 hours, CTRL 1336): 650
MTT relative absorption ([4]; 0.5 μM, 24 hours, CTRL 1200): 1000
MTT relative absorption ([4]; 0.5 μM, 48 hours, CTRL 1200): 977
MTT relative absorption ([4]; 0.5 μM, 72 hours, CTRL 1336): 650
mean absorbance in the MTT assay ([5]; 0.1 uM, 24 hours, CTRL 352): 373
mean absorbance in the MTT assay ([5]; 0.1 uM, 48 hours, CTRL 523): 513
mean absorbance in the MTT assay ([5]; 0.25 uM, 24 hours, CTRL 352): 378
mean absorbance in the MTT assay ([5]; 0.25 uM, 48 hours, CTRL 523): 579
mean absorbance in the MTT assay ([5]; 0.5 uM, 24 hours, CTRL 352): 393
mean absorbance in the MTT assay ([5]; 0.5 uM, 48 hours, CTRL 523): 545
phosphatase activity, % fold increase over the pNPP buffer alone [6]: 4661.0%

phosphatase activity, absorbance at 405 nm as percent fold increase over the blank ([7]; P1-WD 50 micromolar): 5.15%
phosphatase activity, absorbance at 405 nm as percent fold increase over the blank ([7]; P1-WD 100 micromolar): 8.54%
phosphatase activity, absorbance at 405 nm as percent fold increase over the blank ([7]; P1-WD 200 micromolar): 12.89%
Substance: P1-WD: fusion Trojan peptide SEQ ID 3: Penetratin, glycine, PTPRG wedge domain aa 831-856; RQIKIWFQNRRMKWKKGKQFVKHIGELYSNNQHGFSEDFEEVQ (listed as Homo sapiens)

Substance: P1: Penetratin delivery peptide, 16 aa RQIKIWFQNRRMKWKK (SEQ ID 4), control [reference compound]
phosphatase activity, absorbance at 405 nm as percent fold increase over the blank ([7]; control peptide, concentration not given): 5.08%
